Activity calls are given as the source filed them.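 Rule for the calls: active = parasite count per well reduced by over 3 SD from the mean, with host cell number above 80% of untreated; inactive = the rest.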
Test system: L. donovani amastigotes in THP-1 macrophages, DAPI imaging, 72 h
Test: antileishmanial activity in infected macrophages – imaging, THP-1 host macrophages, single concentration (AID 977614);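 note: signal is the parasite per host cell ratio from DAPI stained kinetoplasts and nuclei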

| Structure (SMILES) | AC50 |
| --- | --- |
| C[C@@H]1CN([C@@H](C)CO)C(=O)CCCn2nncc2CO[C@H]1CN(C)Cc1ccc2c(c1)OCCN2C | > 10 µM (inactive) |
| O=C(Nc1ccc(F)cc1)N1[C@H](CO)[C@@H]2c3ccccc3NC[C@@H]21 | > 10 µM (inactive) |
| C[C@H](CO)N1C[C@H](C)[C@H](CN(C)C(=O)Nc2cccc(C(F)(F)F)c2)OCc2cn(nn2)CCCC1=O | > 10 µM (inactive) |
| COc1ccc(CN(C)C[C@@H]2OCc3cnnn3CCCC(=O)N([C@@H](C)CO)C[C@H]2C)cc1 | > 10 µM (inactive) |
| C[C@H]1CN([C@@H](C)CO)C(=O)CCCn2cc(nn2)CO[C@H]1CN(C)C(=O)NC1CCCCC1 | > 10 µM (inactive) |
| C[C@@H]1CN([C@@H](C)CO)C(=O)CCCn2nncc2CO[C@H]1CN(C)S(=O)(=O)c1cn(C)cn1 | > 10 µM (inactive) |
| O=C(Nc1ccccc1F)N1C[C@@H]2[C@H](c3ccccc31)[C@@H](CO)N2C(=O)Cc1cccnc1 | > 10 µM (inactive) |
| OC[C@H]1[C@H]2c3ccccc3NC[C@H]2N1Cc1ccccc1Cl | > 10 µM (inactive) |
| C[C@H](CO)N1C[C@H](C)[C@@H](CN(C)S(=O)(=O)c2cn(C)cn2)OCc2cnnn2CCCC1=O | > 10 µM (inactive) |
| O=C(c1ccc2c(c1)OCO2)N1C[C@@H]2[C@H](c3ccccc31)[C@H](CO)N2Cc1cccnc1 | > 10 µM (inactive) |
| COc1ccc(NC(=O)N(C)C[C@@H]2OCc3cnnn3CCCC(=O)N([C@@H](C)CO)C[C@@H]2C)c(OC)c1 | > 10 µM (inactive) |
| C[C@@H]1CN([C@@H](C)CO)C(=O)CCCn2cc(nn2)CO[C@H]1CN(C)Cc1ccccc1 | > 10 µM (inactive) |
| COCC(=O)N(C[C@@H]1[C@@H](c2ccccc2)[C@H](CO)N1C(=O)NC(C)C)C(C)C | > 10 µM (inactive) |
| C[C@H]1CN([C@@H](C)CO)C(=O)CCCn2nncc2CO[C@@H]1CN(C)S(=O)(=O)c1cn(C)cn1 | > 10 µM (inactive) |
| CNC[C@H]1OCc2cnnn2CCCC(=O)N([C@H](C)CO)C[C@@H]1C | > 10 µM (inactive) |
| O=C(CC(F)(F)F)N1C[C@@H]2[C@H](c3ccccc31)[C@@H](CO)N2CC1CCOCC1 | > 10 µM (inactive) |
| C[C@H](CO)N1C[C@H](C)[C@@H](CN(C)C(=O)Nc2ccnc(N3CCOCC3)c2)OCc2cnnn2CCCC1=O | > 10 µM (inactive) |
| COCC(=O)NC[C@@H]1[C@@H](c2ccccc2)[C@H](CO)N1C(=O)c1ccccc1 | > 10 µM (inactive) |
| CC(=O)N1[C@H](CO)[C@@H](c2ccccc2)[C@H]1CN(C)S(=O)(=O)c1ccccc1 | > 10 µM (inactive) |
| Cc1cccc(S(=O)(=O)N2C[C@@H]3[C@H](c4ccccc42)[C@@H](CO)N3CC2CCCC2)c1 | > 10 µM (inactive) |
| COCC(=O)N(C[C@H]1[C@H](c2ccccc2)[C@@H](CO)N1C(=O)NC(C)C)C(C)C | > 10 µM (inactive) |
| C[C@H]1CN([C@@H](C)CO)C(=O)CCCn2cc(nn2)CO[C@H]1CN(C)S(=O)(=O)c1ccc(-n2cccn2)cc1 | > 10 µM (inactive) |
| CC(=O)N1[C@@H](CO)[C@@H]2c3ccccc3N(S(=O)(=O)c3ccccc3C)C[C@@H]21 | > 10 µM (inactive) |
| O=C(NC[C@@H]1[C@@H](c2ccccc2)[C@@H](CO)N1C(=O)Cc1ccncc1)C1CCC1 | > 10 µM (inactive) |
| CCN(C[C@@H]1N[C@H](CO)[C@H]1c1ccccc1)C(=O)c1ccncc1 | > 10 µM (inactive) |

| Structure (SMILES) | AC50 |
| --- | --- |
| C[C@@H]1CN([C@@H](C)CO)C(=O)CCCn2nncc2CO[C@@H]1CN(C)Cc1ccc(C(=O)Nc2ccccc2N)cc1 | > 10 µM (inactive) |
| C[C@H]1CN([C@@H](C)CO)C(=O)CCCn2nncc2CO[C@H]1CN(C)S(=O)(=O)c1ccccc1C#N | > 10 µM (inactive) |
| C[C@H](CO)N1C[C@H](C)[C@@H](CN(C)S(=O)(=O)c2ccc(Oc3ccccc3)nc2)OCc2cnnn2CCCC1=O | > 10 µM (inactive) |
| Cc1noc(C)c1S(=O)(=O)N(C)C[C@@H]1OCc2cnnn2CCCC(=O)N([C@H](C)CO)C[C@@H]1C | > 10 µM (inactive) |
| O=C(NC[C@@H]1[C@@H](c2ccccc2)[C@H](CO)N1C(=O)Cc1ccncc1)C1CCC1 | > 10 µM (inactive) |
| COc1ccc(C(=O)N2C[C@H]3[C@@H](c4ccccc42)[C@@H](CO)N3C(=O)Cc2ccccn2)cc1 | > 10 µM (inactive) |
| C[C@@H]1CN([C@H](C)CO)C(=O)CCCn2nncc2CO[C@@H]1CN(C)S(=O)(=O)c1ccc2c(c1)OCCCO2 | > 10 µM (inactive) |
| CN(C[C@@H]1N[C@H](CO)[C@H]1c1ccc(C2=CCCC2)cc1)C(=O)c1cccc(F)c1 | > 10 µM (inactive) |
| C[C@@H]1CN([C@@H](C)CO)C(=O)CCCn2cc(nn2)CO[C@H]1CN(C)C(=O)Nc1ccc2c(c1)OCO2 | > 10 µM (inactive) |
| C[C@H](CO)N1C[C@H](C)[C@H](CN(C)Cc2cccc(C(F)(F)F)c2)OCc2cnnn2CCCC1=O | > 10 µM (inactive) |
| COc1ccc(CN2[C@@H](CO)[C@@H]3c4ccccc4NC[C@@H]32)cc1 | > 10 µM (inactive) |
| O=C(NC[C@H]1[C@H](c2ccccc2)[C@@H](CO)N1Cc1cccnc1)c1ccccn1 | > 10 µM (inactive) |
| C[C@H]1CN([C@@H](C)CO)C(=O)CCCn2cc(nn2)CO[C@@H]1CN(C)C(=O)Nc1cccc(C(F)(F)F)c1 | > 10 µM (inactive) |
| C[C@@H]1CN([C@@H](C)CO)C(=O)CCCn2nncc2CO[C@H]1CN(C)C(=O)Nc1ccc(-c2cccs2)cc1 | > 10 µM (inactive) |
| O=C(c1ccccc1F)N1C[C@H]2[C@@H](c3ccccc31)[C@H](CO)N2C(=O)Nc1ccccc1 | > 10 µM (inactive) |
| C[C@H](CO)N1C[C@H](C)[C@@H](CN(C)CC2CCCCC2)OCc2cnnn2CCCC1=O | > 10 µM (inactive) |
| O=S(=O)(NC[C@H]1[C@H](c2ccccc2)[C@H](CO)N1CC1CC1)c1ccccc1 | > 10 µM (inactive) |
| C[C@@H]1CN([C@H](C)CO)C(=O)CCCn2nncc2CO[C@H]1CN(C)C(=O)Nc1ccccc1C(F)(F)F | > 10 µM (inactive) |
| COc1ccc(C(=O)N2C[C@@H]3[C@H](c4ccccc42)[C@@H](CO)N3C(=O)NC(C)C)cc1 | > 10 µM (inactive) |
| C[C@@H]1CN([C@H](C)CO)C(=O)CCCn2cc(nn2)CO[C@@H]1CN(C)C(=O)Oc1ccc2ccccc2c1 | > 10 µM (inactive) |
| CCS(=O)(=O)N(C)C[C@@H]1N[C@H](CO)[C@@H]1c1ccc(C2=CCCCC2)cc1 | > 10 µM (inactive) |
| CC(=O)N1[C@@H](CO)[C@@H](c2ccccc2)[C@@H]1CN(CC(C)C)C(=O)c1ccccn1 | > 10 µM (inactive) |
| C[C@@H]1CN([C@H](C)CO)C(=O)CCCn2nncc2CO[C@@H]1CN(C)Cc1ccccc1C(=O)O | > 10 µM (inactive) |
| COc1ccccc1S(=O)(=O)N(C)C[C@@H]1OCc2cn(nn2)CCCC(=O)N([C@H](C)CO)C[C@H]1C | > 10 µM (inactive) |
| C[C@@H]1CN([C@@H](C)CO)C(=O)CCCn2nncc2CO[C@H]1CN(C)C(=O)c1cc(-c2ccccc2)on1 | > 10 µM (inactive) |

| Structure (SMILES) | AC50 |
| --- | --- |
| O=C(NC[C@@H]1[C@H](c2ccccc2)[C@H](CO)N1C(=O)C1CCC1)NC1CCCC1 | > 10 µM (inactive) |
| COc1ccc(NC(=O)N(C)C[C@@H]2OCc3cnnn3CCCC(=O)N([C@H](C)CO)C[C@H]2C)c(OC)c1 | > 10 µM (inactive) |
| C[C@H]1CN([C@@H](C)CO)C(=O)CCCn2nncc2CO[C@@H]1CN(C)C(=O)c1cc(-c2ccccc2)on1 | > 10 µM (inactive) |
| CCc1csc(N2[C@H](CO)[C@H](c3ccccc3)[C@@H]2CNC)n1 | > 10 µM (inactive) |
| O=C(CC(F)(F)F)N1C[C@H]2[C@@H](c3ccccc31)[C@H](CO)N2C(=O)C1CCCCC1 | > 10 µM (inactive) |
| CCC(=O)N1[C@@H]2CN(S(=O)(=O)c3ccc(F)cc3)c3ccccc3[C@@H]2[C@@H]1CO | > 10 µM (inactive) |
| COc1ccccc1S(=O)(=O)N(C)C[C@H]1OCc2cn(nn2)CCCC(=O)N([C@H](C)CO)C[C@H]1C | > 10 µM (inactive) |
| COCC(=O)N(C)C[C@@H]1[C@@H](c2ccccc2)[C@H](CO)N1C(=O)Cc1ccncc1 | > 10 µM (inactive) |
| O=C(Nc1ccccc1Cl)N1C[C@@H]2[C@H](c3ccccc31)[C@@H](CO)N2C(=O)c1cccnc1 | > 10 µM (inactive) |
| C[C@H](CO)N1C[C@H](C)[C@@H](CN(C)C(=O)Nc2ccc(-c3cccs3)cc2)OCc2cnnn2CCCC1=O | > 10 µM (inactive) |
| COc1ccccc1C(=O)N1C[C@@H]2[C@H](c3ccccc31)[C@@H](CO)N2C(=O)Cc1ccccc1 | > 10 µM (inactive) |
| C[C@@H]1CN([C@H](C)CO)C(=O)CCCn2nncc2CO[C@H]1CN(C)S(=O)(=O)c1cn(C)cn1 | > 10 µM (inactive) |
| CCC(=O)N(C)C[C@H]1[C@@H](c2ccc(-c3cccc(F)c3)cc2)[C@@H](CO)N1C(C)=O | > 10 µM (inactive) |
| C[C@H]1CN([C@@H](C)CO)C(=O)CCCn2cc(nn2)CO[C@@H]1CN(C)C(=O)CCC(F)(F)F | > 10 µM (inactive) |
| CCN(C[C@@H]1[C@@H](c2ccccc2)[C@H](CO)N1S(C)(=O)=O)C(=O)C1CCCC1 | > 10 µM (inactive) |
| C[C@@H]1CN([C@H](C)CO)C(=O)CCCn2cc(nn2)CO[C@H]1CN(C)C(=O)c1ccc(N2CCN(C)CC2)cc1 | > 10 µM (inactive) |
| O=C(c1ccccn1)N1C[C@H]2[C@@H](c3ccccc31)[C@H](CO)N2C(=O)C1CCCCC1 | > 10 µM (inactive) |
| CN(C[C@@H]1[C@@H](c2ccccc2)[C@H](CO)N1CC1CC1)C(=O)c1ccc(F)cc1 | > 10 µM (inactive) |
| C[C@H](CO)N1C[C@H](C)[C@H](CN(C)C(=O)c2ccc(N3CCN(C)CC3)cc2)OCc2cnnn2CCCC1=O | > 10 µM (inactive) |
| COc1ccccc1C(=O)N1C[C@@H]2[C@H](c3ccccc31)[C@H](CO)N2CC1CCCC1 | > 10 µM (inactive) |
| C[C@H]1CN([C@@H](C)CO)C(=O)CCCn2nncc2CO[C@H]1CN(C)C(=O)Nc1ccc(-c2cccs2)cc1 | > 10 µM (inactive) |
| CCN(C[C@H]1N[C@H](CO)[C@H]1c1ccccc1)C(=O)c1ccncc1 | > 10 µM (inactive) |
| C[C@@H]1CN([C@@H](C)CO)C(=O)CCCn2cc(nn2)CO[C@H]1CN(C)C(=O)NC1CCCCC1 | > 10 µM (inactive) |
| O=S(=O)(c1ccc(F)cc1)N1C[C@H]2[C@@H](c3ccccc31)[C@@H](CO)N2Cc1ccccc1Cl | > 10 µM (inactive) |

Source: PubChem BioAssay AID977614 (Broad Institute, 2014)
